# According to US10597388B2, “Pyridazinone herbicides” (FMC CORPORATION, priority 2014, dated 2020):
# Tests used:
# Experiment in all cases: Test D controlled growth environment herbicide test, pre- and postemergence
# Assay type in all cases: in vivo
# [1] = system: buckwheat, wild (wild buckwheat, Polygonum convolvulus)
# Procedure, shortened: (§1)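 Rating is visual, 0–100 scale (100 = complete control), made against untreated plants 14–21 d after treatment in controlled growth conditions. Postemergence sprays went onto 1- to 4-leaf plants in peat medium; preemergence sprays onto silt loam after sowing; formulation included a surfactant.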
# [2] = system: ryegrass, Italian (Italian ryegrass, Lolium multiflorum)
# Procedure, shortened: as §1
# [3] = system: wheat, winter (winter wheat, Triticum aestivum)
# Procedure, shortened: as §1
# [4] = system: deadnettle (henbit deadnettle, Lamium amplexicaule)
# Procedure, shortened: as §1
# [5] = system: windgrass (Apera spica-venti)
# Procedure, shortened: as §1
# [6] = system: canarygrass (Phalaris minor)
# Procedure, shortened: as §1
# [7] = system: foxtail, green (green foxtail, Setaria viridis)
# Procedure, shortened: as §1
# [8] = system: bromegrass, downy (downy bromegrass, Bromus tectorum)
# Procedure, shortened: as §1
# [9] = system: oilseed rape (Brassica napus)
# Procedure, shortened: as §1
# [10] = system: chamomile (scentless chamomile, Matricaria inodora)
# Procedure, shortened: as §1
# [11] = system: lambsquarters (Chenopodium album)
# Procedure, shortened: as §1
# [12] = system: chickweed (common chickweed, Stellaria media)
# Procedure, shortened: as §1
# [13] = system: galium (catchweed bedstraw, Galium aparine)
# Procedure, shortened: as §1
# [14] = system: field violet (Viola arvensis)
# Procedure, shortened: as §1
# [15] = Postemergence, 31 g ai/ha, scale 0 to 100 (0 no effect, 100 complete control)
# [16] = Postemergence, 125 g ai/ha, visual rating on scale 0 (no effect) to 100 (complete control), 14 to 21 d
# [17] = Postemergence, 250 g ai/ha, scale 0 to 100 (0 no effect, 100 complete control)
# [18] = Preemergence, 62 g ai/ha, scale 0 to 100 (0 no effect, 100 complete control)
# [19] = Preemergence, 125 g ai/ha, scale 0 to 100 (0 no effect, 100 complete control)
# [20] = Preemergence, 250 g ai/ha, scale 0 to 100, 0 no effect, 100 complete control
# [21] = postemergence, 62 g ai/ha, scale 0 to 100, 0 no effect, 100 complete control
compound,measurement,setting,value
Cc1nn(C)c(=O)c(-c2c(C)sc3c(C)cc(Cl)cc23)c1O [Compound 35],"Buckwheat, Wild plant response rating",[1]; [15],95
same,"Plant response rating, Buckwheat, Wild",[1]; [16],100
same,"Plant response rating, Buckwheat, Wild",[1]; [17],100
same,"Plant response rating (scale of 0 to 100), Buckwheat, Wild","[1]; Preemergence, 31 g ai/ha",15
same,"Plant response rating, Buckwheat, Wild",[1]; [18],20
same,"Plant response rating, Buckwheat, Wild",[1]; [19],20
same,"Plant response rating, Buckwheat, Wild",[1]; [20],35
same,"Plant response rating, Buckwheat, Wild",[1]; [21],100
same,"Ryegrass, Italian plant response rating",[2]; [15],65
same,"Plant response rating, Ryegrass, Italian",[2]; [16],80
same,"Plant response rating, Ryegrass, Italian",[2]; [17],90
same,"Plant response rating (scale of 0 to 100), Ryegrass, Italian","[2]; Preemergence, 31 g ai/ha",75
same,"Plant response rating, Ryegrass, Italian",[2]; [18],85
same,"Plant response rating, Ryegrass, Italian",[2]; [19],100
same,"Plant response rating, Ryegrass, Italian",[2]; [20],100
same,"Plant response rating, Ryegrass, Italian",[2]; [21],75
same,"Wheat, Winter plant response rating",[3]; [15],10
same,"Plant response rating, Wheat, Winter",[3]; [16],15
same,"Plant response rating, Wheat, Winter",[3]; [17],20
same,"Plant response rating (scale of 0 to 100), Wheat, Winter","[3]; Preemergence, 31 g ai/ha",0
same,"Plant response rating, Wheat, Winter",[3]; [18],0
same,"Plant response rating, Wheat, Winter",[3]; [19],0
same,"Plant response rating, Wheat, Winter",[3]; [20],10
same,"Plant response rating, Wheat, Winter",[3]; [21],15
same,Deadnettle plant response rating,[4]; [15],15
same,"Plant response rating, Deadnettle",[4]; [16],20
same,"Plant response rating, Deadnettle",[4]; [17],80
same,"Plant response rating (scale of 0 to 100), Deadnettle","[4]; Preemergence, 31 g ai/ha",0
same,"Plant response rating, Deadnettle",[4]; [18],15
same,"Plant response rating, Deadnettle",[4]; [19],55
same,"Plant response rating, Deadnettle",[4]; [20],80
same,"Plant response rating, Deadnettle",[4]; [21],20
same,Windgrass plant response rating,[5]; [15],25
same,"Plant response rating, Windgrass",[5]; [16],70
same,"Plant response rating, Windgrass",[5]; [17],85
same,"Plant response rating (scale of 0 to 100), Windgrass","[5]; Preemergence, 31 g ai/ha",25
same,"Plant response rating, Windgrass",[5]; [18],95
same,"Plant response rating, Windgrass",[5]; [19],100
same,"Plant response rating, Windgrass",[5]; [20],100
same,"Plant response rating, Windgrass",[5]; [21],65
same,Canarygrass plant response rating,[6]; [15],20
same,"Plant response rating, Canarygrass",[6]; [16],70
same,"Plant response rating, Canarygrass",[6]; [17],80
same,"Plant response rating (scale of 0 to 100), Canarygrass","[6]; Preemergence, 31 g ai/ha",75
same,"Plant response rating, Canarygrass",[6]; [18],85
same,"Plant response rating, Canarygrass",[6]; [19],95
same,"Plant response rating, Canarygrass",[6]; [20],98
same,"Plant response rating, Canarygrass",[6]; [21],30
same,"Foxtail, Green plant response rating",[7]; [15],75
same,"Plant response rating, Foxtail, Green",[7]; [16],95
same,"Plant response rating, Foxtail, Green",[7]; [17],95
same,"Plant response rating (scale of 0 to 100), Foxtail, Green","[7]; Preemergence, 31 g ai/ha",50
same,"Plant response rating, Foxtail, Green",[7]; [18],45
same,"Plant response rating, Foxtail, Green",[7]; [19],65
same,"Plant response rating, Foxtail, Green",[7]; [20],100
same,"Plant response rating, Foxtail, Green",[7]; [21],90
same,"Bromegrass, Downy plant response rating",[8]; [15],5
same,"Plant response rating, Bromegrass, Downy",[8]; [16],25
same,"Plant response rating, Bromegrass, Downy",[8]; [17],30
same,"Plant response rating (scale of 0 to 100), Bromegrass, Downy","[8]; Preemergence, 31 g ai/ha",20
same,"Plant response rating, Bromegrass, Downy",[8]; [18],30
same,"Plant response rating, Bromegrass, Downy",[8]; [19],55
same,"Plant response rating, Bromegrass, Downy",[8]; [20],65
same,"Plant response rating, Bromegrass, Downy",[8]; [21],25
same,Oilseed Rape plant response rating,[9]; [15],95
same,"Plant response rating, Oilseed Rape",[9]; [16],100
same,"Plant response rating, Oilseed Rape",[9]; [17],100
same,"Plant response rating (scale of 0 to 100), Oilseed Rape","[9]; Preemergence, 31 g ai/ha",0
same,"Plant response rating, Oilseed Rape",[9]; [18],10
same,"Plant response rating, Oilseed Rape",[9]; [19],65
same,"Plant response rating, Oilseed Rape",[9]; [20],100
same,"Plant response rating, Oilseed Rape",[9]; [21],98
same,Chamomile plant response rating,[10]; [15],100
same,"Plant response rating, Chamomile",[10]; [16],100
same,"Plant response rating, Chamomile",[10]; [17],100
same,"Plant response rating (scale of 0 to 100), Chamomile","[10]; Preemergence, 31 g ai/ha",100
same,"Plant response rating, Chamomile",[10]; [18],100
same,"Plant response rating, Chamomile",[10]; [19],100
same,"Plant response rating, Chamomile",[10]; [20],100
same,"Plant response rating, Chamomile",[10]; [21],100
same,Lambsquarters plant response rating,[11]; [15],75
same,"Plant response rating, Lambsquarters",[11]; [16],98
same,"Plant response rating, Lambsquarters",[11]; [17],98
same,"Plant response rating (scale of 0 to 100), Lambsquarters","[11]; Preemergence, 31 g ai/ha",70
same,"Plant response rating, Lambsquarters",[11]; [18],98
same,"Plant response rating, Lambsquarters",[11]; [19],100
same,"Plant response rating, Lambsquarters",[11]; [20],100
same,"Plant response rating, Lambsquarters",[11]; [21],100
same,Chickweed plant response rating,[12]; [15],90
same,"Plant response rating, Chickweed",[12]; [16],100
same,"Plant response rating, Chickweed",[12]; [17],100
same,"Plant response rating (scale of 0 to 100), Chickweed","[12]; Preemergence, 31 g ai/ha",95
same,"Plant response rating, Chickweed",[12]; [18],95
same,"Plant response rating, Chickweed",[12]; [19],100
same,"Plant response rating, Chickweed",[12]; [20],100
same,"Plant response rating, Chickweed",[12]; [21],100
same,Galium plant response rating,[13]; [15],98
same,"Plant response rating, Galium",[13]; [16],95
same,"Plant response rating, Galium",[13]; [17],100
same,"Plant response rating (scale of 0 to 100), Galium","[13]; Preemergence, 31 g ai/ha",80
same,"Plant response rating, Galium",[13]; [18],85
same,"Plant response rating, Galium",[13]; [19],95
same,"Plant response rating, Galium",[13]; [20],100
same,"Plant response rating, Galium",[13]; [21],98
same,Field Violet plant response rating,[14]; [15],65
same,"Plant response rating, Field Violet",[14]; [16],75
same,"Plant response rating, Field Violet",[14]; [17],98
same,"Plant response rating (scale of 0 to 100), Field Violet","[14]; Preemergence, 31 g ai/ha",15
same,"Plant response rating, Field Violet",[14]; [18],75
same,"Plant response rating, Field Violet",[14]; [19],85
same,"Plant response rating, Field Violet",[14]; [20],100
same,"Plant response rating, Field Violet",[14]; [21],75
